# Reference: patent US5444069A, “Imidazo-pyridine angiotensin II antagonists used to treat memory loss” (Warner-Lambert Company, priority 1994, dated 1995)
# Tests used:
# [1] = biological target: T1, AT2 receptor (rabbit uterus receptor preparations) (Oryctolagus cuniculus, UniProt G1T351); experiment: displacement of 3H-angiotensin II from rabbit uterus receptor preparations; assay type: binding; conditions: read-out: IC50 Values in Rabbit Uterine Preparations
# T1 construct: cell membrane preparations derived from rabbit uterus and corpus luteum; from tissue; host or cells: rabbit uterus, cell membrane preparation
# T1 sequence (G1T351 1-363): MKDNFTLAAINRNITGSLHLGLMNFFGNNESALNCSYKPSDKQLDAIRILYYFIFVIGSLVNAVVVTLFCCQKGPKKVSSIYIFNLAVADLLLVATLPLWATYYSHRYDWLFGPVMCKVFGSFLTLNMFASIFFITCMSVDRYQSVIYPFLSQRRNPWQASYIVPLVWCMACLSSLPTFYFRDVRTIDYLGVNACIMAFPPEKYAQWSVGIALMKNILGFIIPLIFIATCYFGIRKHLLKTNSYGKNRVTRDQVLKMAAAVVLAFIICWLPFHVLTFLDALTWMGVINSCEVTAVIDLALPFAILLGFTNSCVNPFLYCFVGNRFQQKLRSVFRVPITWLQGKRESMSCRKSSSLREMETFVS
# Source text: AT2 receptors are known to exist in organs of the female reproductive system. […] More specifically, AT2 receptors are densely located on granulosa cells in atretic follicles of the ovary.
# [2] = test system: angiotensin II receptors (AT1/AT2) of corpus luteum; experiment: inhibition of 125I-angiotensin II binding, corpus luteum; set-up: species or system rabbit; conditions: 1 μM; 125I-angiotensin II; data from Warner-Lambert Co.
# [3] = test system: angiotensin II receptors (AT1 and AT2), rat brain regions; experiment: displacement of 125I-angiotensin II from receptor preparations of rat brain regions; assay type: binding
# Protocol: The concentration of all three antagonist compounds in these experiments is 1 μM (above the maximal effect concentration).
# [4] = effect on renal free water clearance in anesthetized dogs; conditions: for Free Water Clearance: predose -0.24 ± 0.05, mean ± SE
# Source text: Dogs were anesthetized with sodium pentobarbital after an overnight fast. Animals were placed on a prewarmed surgical table, intubated and prepared for renal clearance experiments. Femoral arteries were cannulated for aortic blood pressure measurements and for blood sampling. A femoral vein was cannulated and used for the infusion of inulin. A left flank incision was made to expose the kidney and ureter. An electromagnetic flow probe was placed on the left renal artery and the left ureter was cannulated for urine collection. An intrarenal infusion of 5% dextrose in water (D5W, 50 μL/min) was administered throughout the protocol except during drug treatment intervals. A priming dose of 50 mL D5W containing 200 mg/kg insulin was administered to each dog via the femoral vein catheter and then followed by a sustained infusion of inulin in D5W (15 mg/mL, 0.075 mL/min/kg).
# A clearance consisted of a timed urine collection with a midpoint blood sample. […] These last two clearances were designated as postdose.
# Plasma and urinary electrolytes were determined with an ion selective electrode analyzer. Urine and plasma inulin concentrations were assayed using an anthrone colorimetric method (Davidson, et al, J. Lab and Clin. Med., 1963, 62, 351-356). Renal clearances and fractional excretion were calculated using standard formulas (Vander, Renal Physiology, 4th ed, pp 44-52 (1991)).
# [5] = estrous cycles in the mature female rat; assay type: in vivo; conditions: for Length of cycles: Pre Rx 4; for Number of cycles observed: Pre Rx 10
# Protocol: Female rats underwent vaginal smearing every morning for 5 weeks; rats with regular 4-day cycles (proestrus, estrus, metestrus, diestrus) were chosen for further study. Groups of rats (n=5) were implanted with Alzet osmotic minipumps (Model 2ML2) containing Example 1 or vehicle on the afternoon of estrus (approximately 2 PM). Drug-treated animals received 30 mg/kg/day Example I for 14 days. Cycles were continually monitored throughout the treatment period and for an additional 20 to 22 days posttreatment.
# Vehicle-treated animals continued to cycle in a 4-day pattern throughout the study.
# [6] = test system: rat striatum acetylcholine (ACh); experiment: effect on rat striatal acetylcholine (ACh) levels; assay type: in vivo; conditions: for ACh concentration, rat striatum: vehicle 61.0 ± 2.33; for ACh, rat striatum, time course: control 65.4 ± 2.47
# Protocol: ACh concentrations were determined as described below. Each
# Results were analyzed by a oneway
# [7] = test system: AT2 receptor, ovarian cells; conditions: Pucell et al., Endocrinology 1991; cited from earlier work
# [8] = test system: rat hippocampus acetylcholine (ACh); experiment: effect on rat hippocampal acetylcholine (ACh) levels; conditions: 30 mg/kg IP, 0.5 h; ± SEM; vehicle 23.9 ± 2.39; * p < 0.05
# Protocol: Thirty minutes after dosing, the rats were sacrificed by exposure to microwave irradiation. […] Haloperidol (2 mg/kg, IP) provides a positive control.
# dosing ACh concentrations were determined as described below.
# [9] = test system: angiotensin II receptors (AT1/AT2) of granulosa cell; conditions: cited from earlier work
# [10] = biological target: T2, AT2 receptor (whole rat brain) (Rattus norvegicus, UniProt P35351); experiment: angiotensin II receptor binding in whole rat brain (DTT protocol)
# T2 construct: IC50 Values in whole Rat Brain Preparations; from tissue; host or cells: whole rat brain
# T2 sequence (P35351 1-363): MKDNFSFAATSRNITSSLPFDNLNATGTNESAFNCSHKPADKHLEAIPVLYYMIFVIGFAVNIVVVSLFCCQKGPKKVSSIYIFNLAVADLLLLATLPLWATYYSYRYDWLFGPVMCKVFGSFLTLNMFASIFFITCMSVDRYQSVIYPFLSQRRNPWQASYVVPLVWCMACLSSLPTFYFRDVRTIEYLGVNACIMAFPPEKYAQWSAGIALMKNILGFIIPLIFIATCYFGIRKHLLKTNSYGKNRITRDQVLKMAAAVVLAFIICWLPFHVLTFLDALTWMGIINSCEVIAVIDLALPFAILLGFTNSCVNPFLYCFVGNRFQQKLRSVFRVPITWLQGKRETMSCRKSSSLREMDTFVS
# Source text: Since receptor-specific binding in whole brain is low and is a mixture of two subtypes, an alternative protocol (Bennett and Snyder, Eur. J. Pharmacol., 67, 11-25) was used. This method includes DTT and thereby eliminates binding at AT1 receptors, thus-allowing evaluation of AT2 receptor events.
# [11] = 10 mg/kg IP, 0.5 h, ± SEM, * p < 0.05
smiles,measurement,setting,value
Cc1cc(Cn2cnc3c2C[C@@H](C(=O)O)N(C(=O)C(c2ccccc2)c2ccccc2)C3)ccc1N(C)C [Example 1],IC50,[1],21 nM
same,"% Inhibition with 1 μM Antagonist, Corpus luteum",[2],3%
same,displacement of 125I-angiotensin II in rat brain areas (in words),"[3]; 1 μM per text, each area of brain examined",displace a fraction of the ^125 I-angiotensin II that is displaced by saralasin
same,"125I-Angiotensin II Bound, Brain Stem","[3]; rat brain stem, antagonist 10 μM, total 2124",1258 cpm
same,"125I-Angiotensin II Bound, Cerebellum","[3]; rat cerebellum, antagonist 10 μM, total 571",446 cpm
same,"125I-Angiotensin II Bound, Cortex","[3]; rat cortex, antagonist 10 μM, total 766",507 cpm
same,"125I-Angiotensin II Bound, Cortical Neurons","[3]; rat cortical neurons, antagonist 10 μM, total 2647",2118 cpm
same,"125I-Angiotensin II Bound, Striatal Membrane","[3]; rat striatal membrane, antagonist 10 μM, total 2462",1838 cpm
same,"Free Water Clearance, Change from Predose","[4]; 60 min, dose 3 intrarenal",+54%
same,"Free Water Clearance, Change from Predose","[4]; 90 min, dose 30 intrarenal",+150%
same,Free Water Clearance,"[4]; 90 min, dose 30 intrarenal, * p = 0.097 vs vehicle",+0.11 ± 0.19 mL/min
same,"Free Water Clearance, Change from Predose","[4]; 120 min, dose 300 intrarenal",+370%
same,Free Water Clearance,"[4]; 120 min, dose 300 intrarenal, ** p = 0.015 vs vehicle",+0.64 ± 0.30 mL/min
same,Free Water Clearance,"[4]; 150 min, postdose (dose 0, after washout), *** p = 0.002 vs vehicle",+0.29 ± 0.10 mL/min
same,"Free water clearance, increase from predose levels","[4]; intrarenal infusion, cumulative doses 3, 30 and 300 μg/kg/min",up to 370%
same,free water clearance (in words),[4]; versus vehicle control,increase in free water clearance that is dose dependant and statistically significant when compared to the vehicle control
same,cyclicity during treatment (in words),"[5]; 30 mg/kg/day, 14 days",acyclic during the 14-day treatment interval
same,cyclicity posttreatment (in words),[5]; 20 to 22 days posttreatment,resumed cycling during the posttreatment observation period
same,Length of cycles,"[5]; Post Rx (20 to 22 days posttreatment), vehicle Post Rx 4",3.9 days
same,Number of cycles observed,"[5]; Post Rx (20 to 22 days posttreatment), vehicle Post Rx 5",4
same,Length of cycles,"[5]; Rx: 30 mg/kg/day, 14 days, osmotic minipump, vehicle Rx 4.5",14.4 days
same,Number of cycles observed,"[5]; Rx: 30 mg/kg/day, 14 days, osmotic minipump, vehicle Rx 3",1
same,effect on menstrual cycle (in words),[5]; reproductive studies in rats,interrupts the menstrual cycle
same,"ACh concentration, rat striatum","[6]; 1 mg/kg IP, 0.5 h, ± SEM",57.9 ± 1.86 nM/g
same,"ACh concentration, rat striatum",[6]; [11],48.1 ± 0.99 nM/g
same,"ACh, rat striatum, time course",[6]; [11],37.6 ± 2.10 nM/g
same,"ACh, rat striatum, time course","[6]; 10 mg/kg IP, 1.0 h, ± SEM, * p < 0.05",47.9 ± 2.24 nM/g
same,"ACh, rat striatum, time course","[6]; 10 mg/kg IP, 3.0 h, ± SEM, * p < 0.05",50.2 ± 4.53 nM/g
same,"ACh, rat striatum, time course","[6]; 10 mg/kg IP, 6.0 h, ± SEM",55.8 ± 4.28 nM/g
same,"ACh, rat striatum, time course","[6]; 10 mg/kg IP, 24.0 h, ± SEM",61.3 ± 2.30 nM/g
same,time of peak ACh lowering effect,"[6]; 10 mg/kg, IP",0.5 h
same,time for ACh levels to return to control levels,"[6]; 10 mg/kg, IP, gradual return",24 h
same,"ACh, Striatum (Table V)","[6]; 30 mg/kg IP, 0.5 h, ± SEM, vehicle 52.9 ± 1.72, * p < 0.05",39.7 ± 0.99 nM/g
same,"ACh concentration, rat striatum","[6]; 30 mg/kg IP, 0.5 h, ± SEM, * p < 0.05",37.6 ± 2.10 nM/g
same,"ACh concentration, rat striatum","[6]; 60 mg/kg IP, 0.5 h, ± SEM, * p < 0.05",41.1 ± 1.89 nM/g
same,striatal ACh lowering compared with haloperidol (in words),"[6]; IP, haloperidol 2 mg/kg",matched the efficacy of haloperidol
same,ACh content in brain tissues (in words),"[6]; Tables IV, V and VI",lowers ACh content in brain tissues in a dose dependant and time dependant manner
same,AT2 antagonism in ovarian cells,[7],AT2 antagonistic properties
same,"ACh, Hippocampus (Table V)",[8],15.1 ± 1.55 nM/g
same,"% Inhibition with 1 μM Antagonist, Granulosa cell","[9]; 1 μM, 125I-angiotensin II, adapted from Pucell et al., Endocrinology 1991",97%
same,"displacement of 125I-angiotensin II, granulosa cells (in words)",[9]; Table IX,displaces nearly all of the 125I-angiotensin II
same,IC50,[10],200 nM
